Assay results reported in US9387203B2, “Substituted aminoindane- and aminotetralinecarboxylic acids and the use thereof” (BAYER PHARMA AKTIENGESELLSCHAFT, priority 2012, dated 2016).

Experiments:
[1] = target: T1, soluble guanylate cyclase (sGC) (Rattus norvegicus, UniProt P20595); assay: Stimulation of sGC enzyme activity (PPi detection, luciferase); assay type: biochemical; details: for EC50: sGC enzyme in vitro, read-out: EC50 (half-maximal effective concentration), activating action at the sGC enzyme in vitro
T1 construct: made in house
T1 sequence (P20595 1-619): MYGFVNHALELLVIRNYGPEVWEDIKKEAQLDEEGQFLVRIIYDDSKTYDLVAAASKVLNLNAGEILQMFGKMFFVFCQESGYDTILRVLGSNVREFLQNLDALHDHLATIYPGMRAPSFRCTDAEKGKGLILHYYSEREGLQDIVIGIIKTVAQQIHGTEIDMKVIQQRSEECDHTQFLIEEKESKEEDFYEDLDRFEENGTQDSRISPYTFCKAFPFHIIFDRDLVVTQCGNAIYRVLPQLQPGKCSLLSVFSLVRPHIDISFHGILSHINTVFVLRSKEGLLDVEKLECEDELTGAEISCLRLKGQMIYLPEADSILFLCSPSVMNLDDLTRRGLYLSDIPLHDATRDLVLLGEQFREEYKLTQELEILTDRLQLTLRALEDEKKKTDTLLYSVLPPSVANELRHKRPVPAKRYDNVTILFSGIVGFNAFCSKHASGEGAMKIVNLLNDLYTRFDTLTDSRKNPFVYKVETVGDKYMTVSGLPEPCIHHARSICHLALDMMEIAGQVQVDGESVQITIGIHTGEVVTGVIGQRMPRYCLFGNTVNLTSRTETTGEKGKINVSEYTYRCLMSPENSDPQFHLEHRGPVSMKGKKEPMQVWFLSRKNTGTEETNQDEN
T1 sequence (P19686 1-690 partner): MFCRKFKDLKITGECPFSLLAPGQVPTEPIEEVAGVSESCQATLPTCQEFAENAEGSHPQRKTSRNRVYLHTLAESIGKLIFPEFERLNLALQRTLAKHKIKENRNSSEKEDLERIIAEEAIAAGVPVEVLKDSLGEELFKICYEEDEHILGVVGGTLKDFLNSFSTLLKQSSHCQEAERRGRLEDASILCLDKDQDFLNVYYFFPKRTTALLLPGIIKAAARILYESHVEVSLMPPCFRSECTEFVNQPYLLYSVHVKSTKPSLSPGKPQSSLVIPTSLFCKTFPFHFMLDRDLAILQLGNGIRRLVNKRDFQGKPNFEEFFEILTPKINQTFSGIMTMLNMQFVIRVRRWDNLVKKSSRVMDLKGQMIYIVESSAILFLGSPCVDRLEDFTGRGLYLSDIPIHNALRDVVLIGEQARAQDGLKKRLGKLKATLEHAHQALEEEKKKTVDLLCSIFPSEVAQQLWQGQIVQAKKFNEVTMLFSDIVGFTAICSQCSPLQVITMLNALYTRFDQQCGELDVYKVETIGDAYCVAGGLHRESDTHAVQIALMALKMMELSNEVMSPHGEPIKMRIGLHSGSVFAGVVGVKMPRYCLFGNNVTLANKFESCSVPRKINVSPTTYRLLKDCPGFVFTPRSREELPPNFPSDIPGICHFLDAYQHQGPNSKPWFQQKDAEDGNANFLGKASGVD
Protocol: B-2. Stimulation of sGC Enzyme Activity
Soluble guanylate cyclase (sGC) converts on stimulation GTP into cGMP and pyrophosphate (PPi). PPi is detected with the aid of the assay described below. The signal produced in the assay increases as the reaction progresses and serves as a measure of the sGC enzyme activity under the given stimulation.
To carry out the assay, 29 μl of enzyme solution[0-10 nM soluble guanylate cyclase (prepared according to Honicka et al., J. Mol. Med. 77, 14-23 (1999)) in 50 mM TEA, 2 mM MgCl2, 0.1% BSA (fraction V), 0.005% Brij®, pH 7.5] are initially introduced into a microplate, and 1 μl of the substance to be tested (as a serially diluted solution in DMSO) is added. The mixture is incubated at room temperature for 10 min. Then 20 μl of detection mix [1.2 nM Firefly Luciferase (Photinus pyralis luciferase, Promega), 29 μM dehydroluciferin (prepared according to Bitler & McElroy, Arch. Biochem. Biophys. 72, 358 (1957)), 122 μM luciferin (Promega), 153 μM ATP (Sigma) and 0.4 mM DTT (Sigma) in 50 mM TEA, 2 mM MgCl2, 0.1% BSA (fraction V), 0.005% Brij®, pH 7.5] are added. The enzyme reaction is started by adding 20 μl of substrate solution[1.25 mM guanosine 5′-triphosphate (Sigma) in 50 mM TEA, 2 mM MgCl2, 0.1% BSA (fraction V), 0.005% Brij®, pH 7.5] and measured continuously in a luminometer. The extent of the stimulation by the substance to be tested can be determined relative to the signal of the unstimulated reaction.
The activation of haem-free guanylate cyclase is examined by addition of 25 μM of 1H-1,2,4-oxadiazolo[4,3-a]quinoxalin-1-one (ODQ) to the enzyme solution and subsequent incubation for 30 minutes and compared to the stimulation of the native enzyme.

[2] = tested on: recombinant guanylate cyclase reporter cell line (CHO); assay: Effect on a recombinant guanylate cyclase reporter cell line (sGC-activating activity in the CHO reporter cell); assay type: cell-based
Protocol: B-1. Effect on a Recombinant Guanylate Cyclase Reporter Cell Line
The cellular activity of the compounds according to the invention is determined using a recombinant guanylate cyclase reporter cell line, as described in F. Wunder et al., Anal. Biochem. 339, 104-112 (2005).

[3] = tested on: rabbit arteria saphena rings; assay: Vasorelaxant effect in vitro (arteria saphena rings, phenylephrin contraction); design: species or system Rabbits; details: concentration reducing phenylephrin-induced contraction by 50%
Protocol: B-3. Vasorelaxant Effect In Vitro
Rabbits are anaesthetized by intravenous injection of thiopental sodium […] (about 50 mg/kg) and exsanguinated. The arteria saphena is removed and divided into 3 mm wide rings. The rings are individually mounted on in each case one triangular pair of hooks, open at the end, made of 0.3 mm strong special wire (Remanium®). Under pretension, each ring is transferred into 5 ml organ baths containing carbogen-gassed Krebs-Henseleit solution of a temperature of 37° C. having the following composition: NaCl 119 mM; KCl 4.8 mM; CaCl2×2 H2O 1 mM; MgSO4×7 H2O 1.4 mM; KH2PO4 1.2 mM; NaHCO3 25 mM; glucose 10 mM; bovine serum albumin 0.001%. The contractile force is determined with Statham UC2 cells, amplified and digitalized using A/D transducers (DAS-1802 HC, Keithley Instruments Munich), and recorded in parallel on linear recorders. Contractions are induced by addition of phenylephrin.
After several (in general 4) control cycles, the substance to be investigated is added in each further passage in increasing dosage, and the height of the contraction achieved under the influence of the test substance is compared with the height of the contraction achieved in the last preliminary passage. From this, the concentration which is necessary in order to reduce the contraction achieved in the preliminary control by 50% (IC50) is calculated. The standard administration volume is 5 μl. The proportion of DMSO in the bath solution corresponds to 0.1%.

Row | MEC (minimum effective concentration), activating action at the sGC enzyme in vitro [1] [nM] | IC50 ([3]; Oryctolagus cuniculus) [nM] | EC50 [1] [nM] | IC50 [3] [nM] | Structure (SMILES) | MEC (minimum effective concentration), sGC-activating activity in the CHO reporter cell in vitro [2] [nM]
1 | 600 | – | – | – | O=C(O)CCCCN(CCc1ccccc1OCCCCN1CCCC1=O)C1CCCc2cc(C(=O)O)ccc21 (stereo not drawn) [Example 16] | –
2 | 610 | – | – | – | Cc1cc(COc2ccccc2CCN(CCCCC(=O)O)C2CCCc3cc(C(=O)O)ccc32)n(C)n1 (stereo not drawn) [Example 11] | –
3 | 270 | – | – | – | N#Cc1cccc(COc2ccccc2CCN(CCCCC(=O)O)C2CCCc3cc(C(=O)O)ccc32)c1 (stereo not drawn) [Example 10] | 1000
4 | 0.21 | 31 | 4.5 | – | CC(C)(C)c1ccc(COc2ccccc2CCN(CCCCC(=O)O)C2CCc3cc(C(=O)O)ccc32)cc1 (stereo not drawn) [Example 4] | 3.0
5 | 0.32 | – | 7.2 | – | O=C(O)CCCCN(CCc1ccccc1OCc1ccc(CCc2ccccc2)cc1)C1CCCc2cc(C(=O)O)ccc21 (stereo not drawn) [Example 8] | 0.3
6 | 0.34 | 6 | 3 | – | CC(C)(C)c1ccc(COc2ccccc2CCN(CCCCC(=O)O)C2CCCc3cc(C(=O)O)ccc32)cc1 (racemic) [Example 1, rac-5-[(2-{2[(4-tert-Butylbenzyl)oxy]phenyl}ethyl)(4-carboxybutyl)amino]-5,6,7,8-tetrahydronaphthalene-2-carboxylic acid] | 0.3
7 | 0.11 | – | 2.5 | 3.8 | CC(C)(C)c1ccc(COc2ccccc2CCN(CCCCC(=O)O)C2CCCc3cc(C(=O)O)ccc32)cc1 (single isomer, unassigned; enantiomer 1) [Example 2, 5-[(2-{2-[(4-tert-Butylbenzyl)oxy]phenyl}ethyl)(4-carboxybutyl)amino]-5,6,7,8-tetrahydronaphthalene-2-carboxylic acid (enantiomer 1)] | 0.2
8 | 5 | – | 43 | 58 | CC(C)(C)c1ccc(COc2ccccc2CCN(CCCCC(=O)O)C2CCCc3cc(C(=O)O)ccc32)cc1 (single isomer, unassigned; enantiomer 2) [Example 3, 5-[(2-{2-[(4-tert-Butylbenzyl)oxy]phenyl}ethyl)(4-carboxybutyl)amino]-5,6,7,8-tetrahydronaphthalene-2-carboxylic acid (enantiomer 2)] | 0.65
9 | 55 | – | – | – | CC1CCC(=O)N1CCCCOc1ccccc1CCN(CCCCC(=O)O)C1CCCc2cc(C(=O)O)ccc21 (stereo not drawn) [Example 13] | –
